The source of these data is ChEMBL document CHEMBL1130951, “A photoactivated prodrug” (Bioorg Med Chem Lett, 1998).

Series [1] is described as follows: T1/2 was determined. The series is classed as ADME.
For series [2], the system named is DH5 alpha. Nature of the series: Compound was irradiated and tested for its ability to inhibit growth of Escherichia coli DH5 alpha cells at 100 uM concentration; cell growth almost completely inhibited. The series is classed as functional, cell-based.
The test system of series [3] is DH5 alpha. The series is described as follows: Compound was tested for its ability to inhibit growth of Escherichia coli DH5 alpha cells at 100 uM concentration; slight growth inhibition observed. The series is classed as functional, cell-based.
The subject of series [4] is DH5 alpha. The series is described as follows: Compound was tested for its ability to inhibit growth of Escherichia coli DH5 alpha cells at 100 uM concentration; complete arrest of cell growth observed. The series is classed as functional, cell-based.

By half-life is commonly meant how long it takes for the measured level to halve. A low value points to rapid decline.

`COc1cc(COC(=O)OC[C@H]2O[C@@H](n3cc(F)c(=O)[nH]c3=O)C[C@@H]2O)c([N+](=O)[O-])cc1OC` had a half-life in series [1] of 6 min. Also, the inhibition result in series [2] and in series [3] was “cell growth almost completely inhibited” throughout.
For the molecule `O=c1[nH]c(=O)n([C@H]2C[C@H](O)[C@@H](CO)O2)cc1F`, in series [4], the inhibition entry is reported as “complete arrest of cell growth observed”.
